The record followed here is article PMC3393087 (Journal of the American Chemical Society, 2010).

≈ marks a conversion by molar mass, not a printed value. Read-outs that look alike come from different tables or passages of the source.

The test system of experiment [1] is A. baumannii strain JC7/04 pAT-RA/OXA-24 (WT). Description: microbe, parasite or virus in culture. The experiment is classed as cell-based, Acinetobacter baumannii.
For experiment [2], the system named is A. baumannii strain JC7/04 pAT-RA. Description: microbe, parasite or virus in culture. The experiment is classed as cell-based, Acinetobacter baumannii.
The test system of experiment [3] is A. baumannii strain JC7/04 pAT-RA/OXA-24 (Y112A,M223A). Description: microbe, parasite or virus in culture. The class given is cell-based. Conditions: Acinetobacter baumannii.
Experiment [4] has as its target OXA-24 Tyr112Ala Met 223Ala (Acinetobacter baumannii, UniProt Q8RLA6, M223A/Y112A). The settings on record: substrate hydrolysis by OXA-24 Tyr112Ala Met223Ala.
In a further experiment the target is OXA-24 Tyr112Ala (Acinetobacter baumannii, UniProt Q8RLA6, Y112A). The settings on record: substrate hydrolysis by OXA-24 Tyr112Ala.
Where [5] appears, read: pAT-RA/OXA-24 (WT), tazobactam, 1-5 tested at 4 μg/ml, 50 μg/mL rifampin.
[6] abbreviates: pAT-RA/OXA-24 (WT), tazobactam, 1-5 tested at 16 μg/ml, 50 μg/mL rifampin.
Where [7] appears, read: pAT-RA without blaOXA-24, tazobactam, 1-5 tested at 16 μg/ml, 50 μg/mL rifampin.

Turning to `C[C@@H](O)[C@H]1C(=O)N2C(C(=O)O)=C(S[C@@H]3CN[C@H](C(=O)N(C)C)C3)[C@H](C)[C@H]12` [Meropenem, meropenem], the MIC in experiment [1] (Acinetobacter baumannii) worked out at 32 µg/mL (≈ 83.4 µM); in experiment [1] (setting [5]), 32 µg/mL; in experiment [1] (setting [6]) it was 32 µg/mL; in experiment [2] (pAT-RA without blaOXA-24, tazobactam, 1-5 tested at 4 μg/ml, 50 μg/mL rifampin), 1 µg/mL; in experiment [2] (setting [7]), 1 µg/mL; in experiment [3] it was 2 µg/mL (≈ 5.22 µM).
Take `C[C@@H](O)[C@H]1C(=O)N2C(C(=O)O)=C(SCCN=CN)C[C@H]12` [Imipenem, imipenem]: the MIC in experiment [1] (Acinetobacter baumannii) stood at 32 µg/mL (≈ 107 µM); in experiment [1] (setting [5]), 32 µg/mL; in experiment [1] (setting [6]), 32 µg/mL; in experiment [2] (setting [7]) it was 1 µg/mL; in experiment [3] it was 4 µg/mL (≈ 13.4 µM).
Take `C[C@]1(Cn2ccnn2)[C@H](C(=O)O)N2C(=O)C[C@H]2S1(=O)=O` [tazobactam]: in experiment [1] (inhibitor at 4 μg/ml combined with meropenem or imipenem, blaOXA-24 expressed), the “reduction in MICs of meropenem or imipenem” value is “did not detect a reduction in MICs”. The MIC in experiment [2] (Acinetobacter baumannii, JC7/04PATRA, read-out: MIC of inhibitor alone) was above 64 µg/mL.
One may read the Km as the substrate concentration at which the rate is half of its maximum. Turning to `O=C(Cc1cccs1)N[C@@H]1C(=O)N2C(C(=O)O)=C(/C=C/c3ccc([N+](=O)[O-])cc3[N+](=O)[O-])CS[C@H]12` [NCF, nitrocefin], the figures for the Km (in experiment [4]; on OXA-24 Tyr112Ala) were 143 µM and 238 µM, respectively.
